In ChEMBL document CHEMBL5705903, “A DNA Hypomethylation Signature Predicts Antitumor Activity of LSD1 Inhibitors in SCLC” (Cancer Cell, 2015):

Legend:
[1] = Inhibition of AChR receptor (unknown origin); parameters: species or system Homo sapiens
[2] = biological target: T1, 5-hydroxytryptamine receptor 2C (Homo sapiens, UniProt P28335); assay: Antagonist activity at 5-HT2C receptor (unknown origin); format: functional
T1 sequence (P28335 whole entry): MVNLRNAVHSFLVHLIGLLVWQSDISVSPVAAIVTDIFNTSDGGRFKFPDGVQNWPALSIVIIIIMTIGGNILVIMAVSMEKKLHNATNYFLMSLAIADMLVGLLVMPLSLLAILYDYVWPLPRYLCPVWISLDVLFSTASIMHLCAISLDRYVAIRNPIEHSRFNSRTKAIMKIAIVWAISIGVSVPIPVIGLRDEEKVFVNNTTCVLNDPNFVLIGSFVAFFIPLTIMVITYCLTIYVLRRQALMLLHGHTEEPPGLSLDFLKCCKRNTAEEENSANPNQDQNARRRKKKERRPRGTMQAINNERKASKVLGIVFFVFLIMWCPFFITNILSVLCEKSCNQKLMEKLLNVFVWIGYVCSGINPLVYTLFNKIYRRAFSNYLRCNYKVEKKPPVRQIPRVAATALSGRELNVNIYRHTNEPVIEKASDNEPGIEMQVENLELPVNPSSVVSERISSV

[3] = biological target: Phosphatidylinositol 4,5-bisphosphate 3-kinase catalytic subunit gamma isoform (Homo sapiens, UniProt P48736); assay: Inhibition of PI3Kgamma (unknown origin)
[4] = biological target: Sodium channel protein type 5 subunit alpha (Homo sapiens, UniProt Q14524); assay: Inhibition of Nav1.5 (unknown origin)
[5] = biological target: Aurora kinase B (Homo sapiens, UniProt Q96GD4); assay: Inhibition of Aurora B (unknown origin)
[6] = biological target: Tyrosine-protein kinase Lck (Homo sapiens, UniProt P06239); assay: Inhibition of LCK (unknown origin)
[7] = biological target: Cannabinoid receptor 2 (Homo sapiens, UniProt P34972); assay: Agonist activity at Cannabinoid CB2 receptor (unknown origin); format: functional
[8] = biological target: T2, Muscarinic acetylcholine receptor M1 (Homo sapiens, UniProt P11229); assay: Agonist activity at Muscarinic M1 receptor (unknown origin); format: functional
T2 sequence (P11229 whole entry): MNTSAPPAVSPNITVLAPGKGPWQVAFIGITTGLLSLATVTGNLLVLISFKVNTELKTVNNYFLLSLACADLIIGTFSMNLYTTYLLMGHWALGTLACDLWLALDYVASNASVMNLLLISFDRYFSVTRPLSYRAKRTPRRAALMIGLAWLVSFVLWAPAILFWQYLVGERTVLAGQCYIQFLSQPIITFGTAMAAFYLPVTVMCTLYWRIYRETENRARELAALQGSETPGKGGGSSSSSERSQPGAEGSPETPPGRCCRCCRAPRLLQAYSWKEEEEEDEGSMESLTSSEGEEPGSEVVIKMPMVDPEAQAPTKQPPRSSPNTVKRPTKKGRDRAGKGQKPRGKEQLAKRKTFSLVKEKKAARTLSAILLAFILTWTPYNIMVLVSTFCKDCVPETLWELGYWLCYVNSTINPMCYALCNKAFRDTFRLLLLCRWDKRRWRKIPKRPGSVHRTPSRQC

[9] = biological target: Voltage-gated inwardly rectifying potassium channel KCNH2 (Homo sapiens, UniProt Q12809); assay: Inhibition of hERG (unknown origin); format: toxicity
[10] = biological target: T3, Beta-2 adrenergic receptor (Homo sapiens, UniProt P07550); assay: Agonist activity at Adrenergic b2 receptor (unknown origin); format: functional
[11] = biological target: Sodium-dependent serotonin transporter (Homo sapiens, UniProt P31645); assay: Inhibition of SERT (unknown origin)
[12] = biological target: Vasopressin V1a receptor (Homo sapiens, UniProt P37288); assay: Antagonist activity at V1a receptor (unknown origin); format: functional
[13] = biological target: T3, Beta-2 adrenergic receptor; assay: Antagonist activity at Adrenergic b2 receptor (unknown origin); format: functional
[14] = biological target: Histamine H1 receptor (Homo sapiens, UniProt P35367); assay: Antagonist activity at Histamine H1 receptor (unknown origin); format: functional
[15] = biological target: T4, Kappa-type opioid receptor (Homo sapiens, UniProt P41145); assay: Agonist activity at KOR (unknown origin); format: functional
[16] = biological target: Adenosine receptor A2a (Homo sapiens, UniProt P29274); assay: Agonist activity at Adenosine A2a receptor (unknown origin); format: functional
[17] = biological target: T1, 5-hydroxytryptamine receptor 2C; assay: Agonist activity at 5-HT2C receptor (unknown origin); format: functional
[18] = biological target: D(2) dopamine receptor (Homo sapiens, UniProt P14416); assay: Agonist activity at Dopamine D2 receptor (unknown origin); format: functional
[19] = biological target: T4, Kappa-type opioid receptor; assay: Antagonist activity at KOR (unknown origin); format: functional
[20] = biological target: D(1A) dopamine receptor (Homo sapiens, UniProt P21728); assay: Antagonist activity at Dopamine D1 receptor (unknown origin); format: functional
[21] = biological target: Alpha-1B adrenergic receptor (Homo sapiens, UniProt P35368); assay: Agonist activity at Adrenergic a1B receptor (unknown origin); format: functional
[22] = biological target: T5, Muscarinic acetylcholine receptor M2 (Homo sapiens, UniProt P08172); assay: Antagonist activity at Muscarinic M2 receptor (unknown origin); format: functional
T5 sequence (P08172 whole entry): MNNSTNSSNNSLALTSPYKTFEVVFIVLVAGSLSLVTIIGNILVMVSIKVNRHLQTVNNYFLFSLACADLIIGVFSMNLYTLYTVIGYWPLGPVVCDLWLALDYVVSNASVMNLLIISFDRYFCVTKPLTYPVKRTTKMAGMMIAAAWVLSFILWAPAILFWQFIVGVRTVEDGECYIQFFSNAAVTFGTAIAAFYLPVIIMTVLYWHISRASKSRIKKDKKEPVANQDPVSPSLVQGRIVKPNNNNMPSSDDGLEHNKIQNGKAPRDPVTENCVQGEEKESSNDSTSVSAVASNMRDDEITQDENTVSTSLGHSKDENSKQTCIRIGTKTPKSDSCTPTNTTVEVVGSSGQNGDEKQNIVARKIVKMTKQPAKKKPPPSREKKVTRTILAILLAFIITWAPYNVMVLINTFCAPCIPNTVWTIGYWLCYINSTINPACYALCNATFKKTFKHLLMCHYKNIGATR

[23] = biological target: 5-hydroxytryptamine receptor 1B (Homo sapiens, UniProt P28222); assay: Agonist activity at 5-HT1B receptor (unknown origin); format: functional
[24] = biological target: Sodium-dependent noradrenaline transporter (Homo sapiens, UniProt P23975); assay: Inhibition of NET (unknown origin)
[25] = biological target: Nuclear receptor subfamily 1 group I member 2 (Homo sapiens, UniProt O75469); assay: Activation of PXR (unknown origin)
[26] = biological target: Aryl hydrocarbon receptor (Homo sapiens, UniProt P35869); assay: Activation of AhR (unknown origin)
[27] = biological target: Solute carrier organic anion transporter family member 1B1 (Homo sapiens, UniProt Q9Y6L6); assay: Inhibition of OATP1B1 (unknown origin)
[28] = biological target: Acetylcholinesterase (Homo sapiens, UniProt P22303); assay: Inhibition of AChE (unknown origin)
[29] = biological target: T5, Muscarinic acetylcholine receptor M2; assay: Agonist activity at Muscarinic M2 receptor (unknown origin); format: functional
[30] = biological target: Potassium voltage-gated channel subfamily A member 5 (Homo sapiens, UniProt P22460); assay: Inhibition of Kv1.5 (unknown origin)
[31] = biological target: Substance-P receptor (Homo sapiens, UniProt P25103); assay: Antagonist activity at NK1 receptor (unknown origin); format: functional

T3 sequence (P07550 whole entry): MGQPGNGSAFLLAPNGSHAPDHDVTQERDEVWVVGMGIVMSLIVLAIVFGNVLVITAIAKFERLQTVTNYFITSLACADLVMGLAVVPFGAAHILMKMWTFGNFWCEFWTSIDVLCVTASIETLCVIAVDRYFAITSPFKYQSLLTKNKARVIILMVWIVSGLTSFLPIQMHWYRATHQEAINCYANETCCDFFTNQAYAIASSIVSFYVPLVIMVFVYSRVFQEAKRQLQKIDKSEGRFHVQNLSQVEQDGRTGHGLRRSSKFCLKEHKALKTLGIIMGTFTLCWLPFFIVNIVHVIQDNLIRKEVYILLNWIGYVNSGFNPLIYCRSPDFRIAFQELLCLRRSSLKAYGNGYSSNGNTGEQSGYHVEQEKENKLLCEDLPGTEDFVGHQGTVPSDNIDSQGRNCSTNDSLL
T4 sequence (P41145 whole entry): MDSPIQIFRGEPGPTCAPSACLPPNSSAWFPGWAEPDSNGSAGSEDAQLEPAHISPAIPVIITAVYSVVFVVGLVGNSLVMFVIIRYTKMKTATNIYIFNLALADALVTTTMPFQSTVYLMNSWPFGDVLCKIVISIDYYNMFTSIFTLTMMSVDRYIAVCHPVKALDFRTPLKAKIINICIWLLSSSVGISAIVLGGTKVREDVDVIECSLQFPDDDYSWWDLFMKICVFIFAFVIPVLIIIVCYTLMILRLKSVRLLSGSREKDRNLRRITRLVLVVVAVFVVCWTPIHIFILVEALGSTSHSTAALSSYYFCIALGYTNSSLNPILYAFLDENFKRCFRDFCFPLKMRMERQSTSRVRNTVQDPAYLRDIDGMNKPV
Chain of Nuclear receptor subfamily 1 group I member 2 (O75469 whole entry): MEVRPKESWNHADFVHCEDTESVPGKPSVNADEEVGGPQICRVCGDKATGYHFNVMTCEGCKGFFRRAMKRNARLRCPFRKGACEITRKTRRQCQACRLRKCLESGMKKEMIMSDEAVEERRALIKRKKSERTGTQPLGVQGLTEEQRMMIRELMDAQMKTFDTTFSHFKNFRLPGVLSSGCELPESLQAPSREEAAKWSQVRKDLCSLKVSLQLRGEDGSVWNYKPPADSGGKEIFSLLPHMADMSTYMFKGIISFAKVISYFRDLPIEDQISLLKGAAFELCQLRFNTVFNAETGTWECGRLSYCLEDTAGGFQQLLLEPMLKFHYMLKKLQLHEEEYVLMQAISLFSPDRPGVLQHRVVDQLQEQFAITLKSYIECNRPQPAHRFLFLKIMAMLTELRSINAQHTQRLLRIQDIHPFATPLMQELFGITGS
Chain of Sodium-dependent noradrenaline transporter (P23975 whole entry): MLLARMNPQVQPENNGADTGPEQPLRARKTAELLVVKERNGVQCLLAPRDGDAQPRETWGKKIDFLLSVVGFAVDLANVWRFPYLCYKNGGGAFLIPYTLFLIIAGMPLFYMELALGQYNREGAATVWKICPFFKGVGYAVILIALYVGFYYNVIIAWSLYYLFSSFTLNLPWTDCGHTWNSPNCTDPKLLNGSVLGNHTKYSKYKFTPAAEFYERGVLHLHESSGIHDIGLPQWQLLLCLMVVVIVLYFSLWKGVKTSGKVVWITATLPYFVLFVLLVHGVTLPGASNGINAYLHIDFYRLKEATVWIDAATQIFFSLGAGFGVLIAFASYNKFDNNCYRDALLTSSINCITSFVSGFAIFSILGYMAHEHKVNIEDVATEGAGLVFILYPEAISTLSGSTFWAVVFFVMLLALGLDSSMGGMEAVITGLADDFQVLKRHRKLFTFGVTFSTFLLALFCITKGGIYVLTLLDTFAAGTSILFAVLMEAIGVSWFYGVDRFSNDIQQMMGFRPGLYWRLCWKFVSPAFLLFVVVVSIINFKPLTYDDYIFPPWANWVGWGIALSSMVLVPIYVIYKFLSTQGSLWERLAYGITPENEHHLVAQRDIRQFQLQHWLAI
Chain of Aurora kinase B (Q96GD4 whole entry): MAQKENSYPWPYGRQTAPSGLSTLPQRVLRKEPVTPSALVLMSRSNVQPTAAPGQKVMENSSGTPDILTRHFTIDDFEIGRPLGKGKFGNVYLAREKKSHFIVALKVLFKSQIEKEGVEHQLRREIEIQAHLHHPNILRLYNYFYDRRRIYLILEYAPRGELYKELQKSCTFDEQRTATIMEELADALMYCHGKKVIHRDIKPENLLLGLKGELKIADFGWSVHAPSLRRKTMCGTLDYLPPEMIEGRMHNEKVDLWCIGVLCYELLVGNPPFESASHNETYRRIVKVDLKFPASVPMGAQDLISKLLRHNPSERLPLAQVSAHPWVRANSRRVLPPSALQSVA
Chain of Sodium channel protein type 5 subunit alpha (Q14524 whole entry): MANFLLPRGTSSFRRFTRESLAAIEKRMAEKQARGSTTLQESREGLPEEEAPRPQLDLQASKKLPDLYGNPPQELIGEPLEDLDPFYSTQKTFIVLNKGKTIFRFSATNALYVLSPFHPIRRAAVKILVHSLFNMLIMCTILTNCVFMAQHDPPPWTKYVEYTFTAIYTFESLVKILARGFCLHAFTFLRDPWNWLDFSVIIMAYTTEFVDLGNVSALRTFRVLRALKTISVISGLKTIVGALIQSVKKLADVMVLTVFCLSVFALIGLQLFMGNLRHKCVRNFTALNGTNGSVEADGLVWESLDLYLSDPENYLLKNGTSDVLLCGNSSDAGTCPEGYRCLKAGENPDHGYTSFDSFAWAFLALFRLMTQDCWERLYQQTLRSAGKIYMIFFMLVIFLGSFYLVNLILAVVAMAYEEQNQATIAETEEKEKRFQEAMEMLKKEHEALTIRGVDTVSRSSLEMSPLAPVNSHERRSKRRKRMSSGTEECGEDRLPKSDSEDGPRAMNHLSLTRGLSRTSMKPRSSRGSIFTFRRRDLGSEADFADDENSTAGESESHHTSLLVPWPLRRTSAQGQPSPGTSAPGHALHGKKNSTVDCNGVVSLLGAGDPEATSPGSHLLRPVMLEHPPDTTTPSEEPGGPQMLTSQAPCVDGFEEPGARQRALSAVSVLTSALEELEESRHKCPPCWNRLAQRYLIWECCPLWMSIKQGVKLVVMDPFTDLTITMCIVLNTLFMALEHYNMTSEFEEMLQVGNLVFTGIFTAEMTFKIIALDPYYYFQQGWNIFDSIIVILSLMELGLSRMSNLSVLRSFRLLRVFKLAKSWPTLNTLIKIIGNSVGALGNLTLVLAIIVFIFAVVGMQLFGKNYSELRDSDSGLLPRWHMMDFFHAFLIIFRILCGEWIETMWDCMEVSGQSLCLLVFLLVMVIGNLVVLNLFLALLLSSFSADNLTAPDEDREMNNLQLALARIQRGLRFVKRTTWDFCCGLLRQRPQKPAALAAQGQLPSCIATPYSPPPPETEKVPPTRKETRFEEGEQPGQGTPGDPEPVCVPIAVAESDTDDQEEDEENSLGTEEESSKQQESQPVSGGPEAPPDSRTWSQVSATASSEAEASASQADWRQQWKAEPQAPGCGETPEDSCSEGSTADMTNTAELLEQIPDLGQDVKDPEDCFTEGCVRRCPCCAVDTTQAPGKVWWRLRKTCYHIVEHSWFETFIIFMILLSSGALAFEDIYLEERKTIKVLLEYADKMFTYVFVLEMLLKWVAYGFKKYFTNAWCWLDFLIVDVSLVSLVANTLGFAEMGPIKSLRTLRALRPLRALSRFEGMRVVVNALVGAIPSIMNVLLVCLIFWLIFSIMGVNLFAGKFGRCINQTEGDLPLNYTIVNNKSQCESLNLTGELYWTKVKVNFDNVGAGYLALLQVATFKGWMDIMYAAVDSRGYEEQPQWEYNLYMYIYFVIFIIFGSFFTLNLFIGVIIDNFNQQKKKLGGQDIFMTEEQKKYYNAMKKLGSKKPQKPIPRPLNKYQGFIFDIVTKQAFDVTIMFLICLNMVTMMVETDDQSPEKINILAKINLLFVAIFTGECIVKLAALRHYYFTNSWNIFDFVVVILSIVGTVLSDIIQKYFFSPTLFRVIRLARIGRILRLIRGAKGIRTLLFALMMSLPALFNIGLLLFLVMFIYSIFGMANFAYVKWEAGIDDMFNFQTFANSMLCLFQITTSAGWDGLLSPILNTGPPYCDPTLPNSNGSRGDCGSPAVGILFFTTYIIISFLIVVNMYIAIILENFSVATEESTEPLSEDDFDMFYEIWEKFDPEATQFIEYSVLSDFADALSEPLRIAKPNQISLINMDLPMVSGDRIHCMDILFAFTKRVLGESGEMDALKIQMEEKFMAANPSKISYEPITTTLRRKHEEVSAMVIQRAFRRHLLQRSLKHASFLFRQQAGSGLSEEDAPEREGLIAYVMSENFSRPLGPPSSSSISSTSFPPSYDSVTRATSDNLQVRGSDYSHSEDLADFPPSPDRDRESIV
Chain of Vasopressin V1a receptor (P37288 whole entry): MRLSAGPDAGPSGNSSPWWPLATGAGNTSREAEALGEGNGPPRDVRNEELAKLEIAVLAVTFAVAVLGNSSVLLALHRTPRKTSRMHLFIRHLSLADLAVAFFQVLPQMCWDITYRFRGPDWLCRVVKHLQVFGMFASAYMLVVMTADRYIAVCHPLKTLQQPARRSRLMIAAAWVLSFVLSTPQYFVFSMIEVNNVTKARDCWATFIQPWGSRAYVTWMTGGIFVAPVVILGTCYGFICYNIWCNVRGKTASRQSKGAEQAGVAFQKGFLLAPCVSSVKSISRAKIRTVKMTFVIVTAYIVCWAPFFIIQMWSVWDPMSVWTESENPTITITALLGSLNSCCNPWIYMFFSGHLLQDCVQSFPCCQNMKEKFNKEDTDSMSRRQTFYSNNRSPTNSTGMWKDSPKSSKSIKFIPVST
Chain of 5-hydroxytryptamine receptor 1B (P28222 whole entry): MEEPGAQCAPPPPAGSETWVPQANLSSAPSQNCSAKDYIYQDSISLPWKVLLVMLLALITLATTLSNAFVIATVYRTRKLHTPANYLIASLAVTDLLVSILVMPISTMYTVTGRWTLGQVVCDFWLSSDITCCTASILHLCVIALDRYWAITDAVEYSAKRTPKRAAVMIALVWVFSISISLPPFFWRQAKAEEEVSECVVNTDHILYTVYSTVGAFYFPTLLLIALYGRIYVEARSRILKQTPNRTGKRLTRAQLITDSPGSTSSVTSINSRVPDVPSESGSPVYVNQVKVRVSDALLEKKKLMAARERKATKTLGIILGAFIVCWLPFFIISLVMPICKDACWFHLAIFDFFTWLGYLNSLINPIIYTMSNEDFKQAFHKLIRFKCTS

| SMILES | IC50 [1] | EC50 [2] | IC50 [3] | IC50 [4] | IC50 [5] | IC50 [6] | EC50 [7] | EC50 [8] | IC50 [9] | EC50 [10] | IC50 [11] | EC50 [12] | EC50 [13] | EC50 [14] | EC50 [15] | EC50 [16] | EC50 [17] | EC50 [18] | EC50 [19] | EC50 [20] | further results |
| --- | --- | --- | --- | --- | --- | --- | --- | --- | --- | --- | --- | --- | --- | --- | --- | --- | --- | --- | --- | --- | --- |
| O=C(O)c1ccc(CN2CCC(CN[C@@H]3C[C@H]3c3ccccc3)CC2)cc1 [GSK2879552] | > 50 µM | > 40 µM | > 32 µM | 80 µM | > 32 µM | > 32 µM | > 100 µM | > 16 µM | > 25 µM | > 32 µM | 80 µM | > 30 µM | > 32 µM | > 40 µM | > 100 µM | > 32 µM | > 40 µM | 20 µM | > 100 µM | > 32 µM | EC50 [21]: > 40 µM; EC50 [22]: > 16 µM; EC50 [23]: > 32 µM; IC50 [24]: > 100 µM; EC50 [25]: > 30 µM; EC50 [26]: > 100 µM; IC50 [27]: > 30 µM; IC50 [28]: > 100 µM; EC50 [29]: > 16 µM; IC50 [30]: > 30 µM; EC50 [31]: > 40 µM |
| c1ccc([C@@H]2C[C@H]2NC2CCNCC2)cc1 | > 50 µM | > 25 µM | > 32 µM | > 100 µM | > 32 µM | > 32 µM | > 100 µM | > 30 µM | > 30 µM | > 100 µM | 2 µM | > 30 µM | > 100 µM | > 25 µM | > 100 µM | > 100 µM | > 25 µM | > 100 µM | > 100 µM | > 100 µM | EC50 [21]: > 25 µM; EC50 [22]: > 30 µM; EC50 [23]: 5 µM; IC50 [24]: 25 µM; EC50 [25]: > 30 µM; EC50 [26]: > 100 µM; IC50 [27]: > 30 µM; IC50 [28]: > 100 µM; EC50 [29]: > 30 µM; IC50 [30]: > 30 µM; EC50 [31]: > 25 µM |
